Data taken from ChEMBL document CHEMBL3044799, “Biological activity of the succinate dehydrogenase inhibitor fluopyram against Botrytis cinerea and fungal baseline sensitivity” (Pest Manag Sci, 2012).
Converted amounts (≈) assume the structure as drawn. The source made the active and inactive calls. The calls are words filed in the database; no cut-off is given here.

What was measured:
Botrytis cinerea [1] = assay: Protective antifungal activity against Botryotinia fuckeliana inoculated in fungicide-applied strawberry fruit assessed as disease control efficacy at 10 ug AI/ml applied 96 hr prior-inoculation relative to control; type: functional
Botrytis cinerea [2] = assay: Protective antifungal activity against Botryotinia fuckeliana inoculated in fungicide-applied strawberry fruit assessed as disease control efficacy at 50 ug AI/ml applied 96 hr prior-inoculation relative to control; type: functional
Botrytis cinerea [3] = assay: Curative antifungal activity against Botryotinia fuckeliana inoculated in strawberry fruit assessed as disease severity measuring lesion diameter at 50 ug AI/ml applied 96 hr post-inoculation; type: functional
Botrytis cinerea [4] = assay: Curative antifungal activity against Botryotinia fuckeliana inoculated in strawberry fruit assessed as disease severity measuring lesion diameter at 50 ug AI/ml applied 48 hr post-inoculation; type: functional
Botrytis cinerea [5] = assay: Protective antifungal activity against Botryotinia fuckeliana inoculated in fungicide-applied strawberry fruit assessed as disease control efficacy at 50 ug AI/ml applied 24 hr prior inoculation relative to control; type: functional
Botrytis cinerea [6] = assay: Antifungal activity against Botryotinia fuckeliana assessed as inhibition of spore germination at 0.001 to 10 ug/ml after 10 days; type: functional, organism-based
Botrytis cinerea [7] = assay: Curative antifungal activity against Botryotinia fuckeliana inoculated in strawberry fruit assessed as disease severity measuring lesion diameter at 10 ug AI/ml applied 24 hr post-inoculation; type: functional
Botrytis cinerea [8] = assay: Antifungal activity against Botryotinia fuckeliana grown on YBA agar assessed as inhibition of germ tube growth at 1 ug/ml after 10 days; type: functional, organism-based
Botrytis cinerea [9] = assay: Curative antifungal activity against Botryotinia fuckeliana inoculated in strawberry fruit assessed as disease severity measuring lesion diameter at 100 ug AI/ml applied 96 hr post-inoculation; type: functional
Botrytis cinerea [10] = assay: Protective antifungal activity against Botryotinia fuckeliana inoculated in fungicide-applied strawberry fruit assessed as disease severity measuring lesion diameter at 50 ug AI/ml applied 48 hr prior inoculation; type: functional
Botrytis cinerea [11] = assay: Antifungal activity against Botryotinia fuckeliana grown on PDA medium assessed as inhibition of mycelial growth at 10 ug/ml after 10 days; type: functional, organism-based
Botrytis cinerea [12] = assay: Antifungal activity against Botryotinia fuckeliana obtained from kiwi fruit isolate assessed as inhibition of spore germ tube growth; type: functional, organism-based
Botrytis cinerea [13] = assay: Curative antifungal activity against Botryotinia fuckeliana inoculated in strawberry fruit assessed as disease severity measuring lesion diameter at 1 ug AI/ml applied 24 hr post-inoculation; type: functional
Botrytis cinerea [14] = assay: Antifungal activity against Botryotinia fuckeliana grown on succinate medium assessed as inhibition of spore germination at 5 ug/ml after 10 days; type: functional, organism-based
Botrytis cinerea [15] = assay: Curative antifungal activity against Botryotinia fuckeliana inoculated in strawberry fruit assessed as disease control efficacy at 10 ug AI/ml applied 96 hr post-inoculation relative to control; type: functional
Botrytis cinerea [16] = assay: Antifungal activity against Botryotinia fuckeliana assessed as inhibition of germ tube growth at 0.001 to 10 ug/ml after 10 days; type: functional, organism-based
Botrytis cinerea [17] = assay: Curative antifungal activity against Botryotinia fuckeliana inoculated in strawberry fruit assessed as disease control efficacy at 1 ug AI/ml applied 96 hr post-inoculation relative to control; type: functional
Botrytis cinerea [18] = assay: Protective antifungal activity against Botryotinia fuckeliana inoculated in fungicide-applied strawberry fruit assessed as disease control efficacy at 1 ug AI/ml applied 24 hr prior inoculation relative to control; type: functional
Botrytis cinerea [19] = assay: Protective antifungal activity against Botryotinia fuckeliana inoculated in fungicide-applied strawberry fruit assessed as disease severity measuring lesion diameter at 10 ug AI/ml applied 24 hr prior inoculation; type: functional
Botrytis cinerea [20] = assay: Protective antifungal activity against Botryotinia fuckeliana inoculated in fungicide-applied strawberry fruit assessed as disease control efficacy at 10 ug AI/ml applied 48 hr prior inoculation relative to control; type: functional
Botrytis cinerea [21] = assay: Antifungal activity against Botryotinia fuckeliana grown on water agar assessed as inhibition of germ tube growth at 1 ug/ml after 10 days; type: functional, organism-based
Botrytis cinerea [22] = assay: Curative antifungal activity against Botryotinia fuckeliana inoculated in strawberry fruit assessed as disease severity measuring lesion diameter at 10 ug AI/ml applied 96 hr post-inoculation; type: functional
Botrytis cinerea [23] = assay: Antifungal activity against Botryotinia fuckeliana grown on succinate medium assessed as inhibition of mycelial growth at 10 ug/ml after 10 days; type: functional, organism-based
Botrytis cinerea [24] = assay: Antifungal activity against Botryotinia fuckeliana grown on YBA agar assessed as inhibition of spore germination at 1 ug/ml after 10 days; type: functional, organism-based

O=C(NCCc1ncc(C(F)(F)F)cc1Cl)c1ccccc1C(F)(F)F [FLUOPYRAM]
Efficacy (Botrytis cinerea [1]): 66.3%
Efficacy (Botrytis cinerea [2]): 79.2%
Activity (Botrytis cinerea [3]): 10.3 mm
Activity (Botrytis cinerea [4]): 3.2 mm
Efficacy (Botrytis cinerea [5]): 93.9%
growth inhibition (GI) (Botrytis cinerea [6]): Active
Activity (Botrytis cinerea [7]): 5.7 mm
growth inhibition (GI) (Botrytis cinerea [8]): Active
Activity (Botrytis cinerea [9]): 7 mm
Activity (Botrytis cinerea [10]): 2.3 mm
growth inhibition (GI) (Botrytis cinerea [11]): inactive
EC50 (Botrytis cinerea [12]): 0.1 µg/mL (≈ 0.252 µM)
Activity (Botrytis cinerea [13]): 8.8 mm
growth inhibition (GI) (Botrytis cinerea [14]): Active
Efficacy (Botrytis cinerea [15]): 41.1%
growth inhibition (GI) (Botrytis cinerea [16]): Active
Efficacy (Botrytis cinerea [17]): 37.2%
Efficacy (Botrytis cinerea [18]): 66.4%
Activity (Botrytis cinerea [19]): 4.2 mm
Efficacy (Botrytis cinerea [20]): 70.8%
growth inhibition (GI) (Botrytis cinerea [21]): Active
Activity (Botrytis cinerea [22]): 11.1 mm
growth inhibition (GI) (Botrytis cinerea [23]): inactive
growth inhibition (GI) (Botrytis cinerea [24]): Active
